Experiments:
[1] = test system: ISG gene expression induced by MSA-2 in human THP1-Blue-ISG cells; assay: Inhibition of MSA-2-induced ISG gene expression in human THP1-Blue-ISG cells (Quanti-Blue, OD650); format: cell-based; conditions: STING agonist MSA-2 10 µM, incubated for 24 hours
Description: 10 µL of compound diluted with PBS/physiological saline was added to each well of a 96 well cell culture plate. The STING agonist was MSA-2, which was added to the counted cell suspension at a final concentration of 10 µM. For the control group without compounds, 10 µL of PBS/physiological saline containing 2% DMSO was added. 3 replicate wells were set in each group. THP1-Blue-ISG cells were counted and adjusted to a cell concentration of 4× 10^5/mL, and 190 µL of cells containing STING agonist were added to each well for incubation. Therefore, the final volume of each test well was 200 µL, the content of DMSO was 0.1%, and the final concentration of the compound tested was 10/3.3/1.1/0.4/0.13/0.04/0.013/0.004 µM, incubated for 24 hours. In addition, 190 µL of cells without STING agonist and 10 µL of physiological saline containing 2% DMSO were added to the blank group. 3 replicate wells were set in each group.
After 24 hours, 20 µL of culture medium was taken from each well and transferred to a new 96 well plate. 180 µL of chromogenic solution Quanti-Blue was added. The plate was placed in a 37 °C incubator. After 2 hours, the OD650 values were measured.
Result analysis: Inhibition rate (%) = (Con(OD650)−Treated(OD650))/Con(OD650) × 100% [formula]
The IC50 calculation of inhibitors was implemented using the Graphpad Prism 8 software's calculation method log (inhibitor) vs. response - Variable slope (four parameters), with a constrain interval of 0-100.

[2] = test system: DMXAA induced ISG gene expression in mouse RAW-Lucia cells; assay: Inhibition of DMXAA-induced ISG gene expression in mouse RAW-Lucia cells (QUANTI-Luc); format: cell-based; conditions: STING agonist DMXAA 50 µM, incubated for 24 hours
Outline: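 RAW-Lucia cells (4×10^5/mL) stimulated with 50 µM DMXAA and co-incubated 24 h with compound at 10 to 0.004 µM (3-fold steps, 0.1% DMSO). Secreted luciferase in supernatant read with QUANTI-Luc; inhibition calculated against DMXAA-only control, IC50 from four-parameter variable-slope fit constrained 0–100.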

[3] = test system: STING agonist (MSA-2) stimulation; assay: In vivo anti-inflammatory effect of injection administration on STING agonist (MSA-2) stimulation; set-up: species or system C57BL6 female mice; conditions: I-77 10mpk, IP
Description: 6-8 week C57BL6 female mice, purchased from Shanghai Jihui Experimental Animal Breeding Co., Ltd. Compound preparation method: 2 mg of I-77 powder was taken, 12 µL of PEG400 was added thereto and ultrasonically dissolved, and then 8 µL of Tween 80 was added and ultrasonically mixed to prepare a 100 mg/mL stock solution.
Experimental grouping: The control group was administered vehicle solvent; The model group was administered MSA-2 (10mpk, dissolved in 40% PEG400); The treatment group (I-77) was administered MSA-2 and I-77 (10mpk, IP). A final concentration of […] of I-77 solution was prepared by dilution with double distilled water, and 200 µL of the solution was taken and injected intraperitoneally into the mice in treatment group; The control group and MSA-2 group were injected intraperitoneally with 200 µL of vehicle solvent diluted 10 times. […] After high-speed centrifugation of blood samples, the plasma was taken and diluted by 2 times, and the levels of CXCL10 and IL6 in the plasma were detected using the Lianke ELISA kit. RNA was extracted from heart and kidney samples, and reversed to cDNA, and inflammation related cytokines (ISG15, ISG56, IL6, and IP10) in tissues were detected using qPCR technology. […]

[4] = test system: Trex1-D18N autoimmune mouse model; assay: Inflammatory inhibitory effect of oral administration in Trex1-D18N autoimmune mouse model; format: in vivo; conditions: I-77 20mpk, daily for one month, qPCR of Cxcl10/IP10, ISG15, ISG56, IFN-β, IFN-γ, STAT2 in heart, Figure 10
Description: The model mice were purchased from GEMPHARMATECH CO., LTD., and the wild-type C57/BL6 mice were also purchased from GEMPHARMATECH CO., LTD.. Compound preparation method: 2 mg of I-77 powder was taken, 12 µL of PEG400 was added thereto and ultrasonically dissolved, and then 8 µL of Tween 80 was added and ultrasonically mixed to prepare a 100 mg/mL stock solution.
Experimental grouping: Wild type mice control group (Control) was administered vehicle solvent; The model mice group (Model) was administered vehicle solvent; The treatment group (I-77) was administered I-77 (20mpk, PO) to the model mice. The mice in the I-77 group were intragastrically administered 200 µL of I-77 solution at a final concentration of […] daily, which was prepared by dilution with double-distilled water; The same dose of vehicle solvent was administered to the remaining groups continuously for one month. The heart was collected from the experimental endpoint samples. RNA extraction was performed on heart samples, and the RNA was reversed to cDNA. Changes in gene expression of inflammation related cytokines (Cxcl10/IP10, ISG15, ISG56, IFN-β, IFN-γ, and STAT2) in the tissues were detected using qPCR technology. Statistical method: One way ANOVA, *P<0.05, **P<0.01, ***P<0.001, ***P<0.0001.

Structure (SMILES): CC1(C)C(=O)N(Cc2ccsc2)c2cc(C(=O)Nc3c[nH]c4ccccc34)ccc21 [Example I-77, N-(1H-indol-3-yl)-3,3-dimethyl-2-oxo-1-(thien-3-ylmethyl)indolin-6-carboxamide]
- IC50 [1]: 162 nM
- IC50 [2]: 2.28 nM
- IL6 and IP10 levels in plasma stimulated by MSA-2 ([3]; 3 hours before MSA-2 (10mpk), plasma ELISA 3 hours after MSA-2, Figure 1): significantly inhibit the increase
- inflammatory response of the heart and kidneys induced by MSA-2 stimulation ([3]; qPCR of ISG15, ISG56, IL6, IP10 in tissues, Figures 2, 3): suppress the inflammatory response
- cardiac inflammation related cytokine expression in the Trex1-D18N model [4]: significantly inhibit the upregulation
